{"source": "EPA's ToxRefDB 2", "key": {"rat [1]": {"test_system": "rat", "conditions": "Prenatal developmental toxicity study, other, Oral, Gavage/Intubation, dose end: 15 GD"}, "rabbit [2]": {"test_system": "rabbit", "conditions": "Prenatal developmental toxicity study, other, Oral, Gavage/Intubation, dose end: 19 GD"}, "rat [3]": {"test_system": "rat", "conditions": "Subchronic dermal toxicity, sprague dawley, Topical, dose end: 28 day, group: systemic, systemic / clinical chemistry / alkaline phosphatase (alp/alk) / alkaline phosphatase (alp/alk) + systemic / clinical chemistry / glucose / …"}, "dog [4]": {"test_system": "dog", "conditions": "Subchronic oral toxicity in nonrodent, beagle, Feed, dose end: 13 week, group: systemic, systemic / clinical chemistry / alanine aminotransferase (alt/sgpt) / alanine aminotransferase (alt/sgpt) + systemic / clinical chemistry / …"}, "mouse [5]": {"test_system": "mouse", "conditions": "Carcinogenicity, other, Oral, Feed, dose end: 78 week, group: systemic"}, "rat [6]": {"test_system": "rat", "conditions": "Subchronic oral toxicity in rodents, sprague dawley, Feed, dose end: 28 day, group: systemic"}, "rabbit [7]": {"test_system": "rabbit", "conditions": "Prenatal developmental toxicity study, himalayan, Oral, Gavage/Intubation, dose end: 19 GD"}, "rat [8]": {"test_system": "rat", "conditions": "Subchronic oral toxicity in rodents, sprague dawley, Gavage/Intubation, dose end: 28 day, group: systemic"}, "rat [9]": {"test_system": "rat", "conditions": "Prenatal developmental toxicity study, other, Oral, Gavage/Intubation, dose end: 15 GD", "remark": "listed apart in the source"}, "dog [10]": {"test_system": "dog", "conditions": "Subchronic oral toxicity in nonrodent, beagle, Feed, dose end: 28 day, group: systemic, systemic / in life observation / food consumption / food consumption + systemic / in life observation / body weight / body weight + systemic…"}, "mouse [11]": {"test_system": "mouse", "conditions": "Other (NonGuideline or Guideline Not Listed), Oral, Feed, dose end: 59 day, group: cannot be grouped"}, "rat [12]": {"test_system": "rat", "conditions": "Combined chronic toxicity/carcinogenicity; sprague dawley; Oral; Feed; dose end: 24 month; group: systemic; systemic / pathology microscopic / kidney / infiltration cellular + systemic / pathology microscopic / kidney / nephropathy"}, "mouse [13]": {"test_system": "mouse", "conditions": "Subchronic oral toxicity in rodents, other, Feed, dose end: 13 week, group: systemic"}, "rat [14]": {"test_system": "rat", "conditions": "Subchronic oral toxicity in rodents, sprague dawley, Feed, dose end: 3 month, group: systemic"}, "dog [15]": {"test_system": "dog", "conditions": "Chronic toxicity; beagle; Oral; Feed; dose end: 52 week; group: systemic; systemic / clinical chemistry / creatinine / creatinine + systemic / clinical chemistry / urea nitrogen / urea + systemic / pathology …"}, "[16]": {"conditions": "group: developmental, developmental / developmental malformation / bone / incomplete ossification + developmental / developmental malformation / bone / irregular …"}, "[17]": {"conditions": "group: maternal, systemic / in life observation / body weight / body weight + systemic / in life observation / body weight / body weight gain + systemic / in…"}, "[18]": {"conditions": "group: developmental, systemic / in life observation / body weight / fetal weight"}, "[19]": {"conditions": "group: maternal, systemic / in life observation / body weight / body weight gain + systemic / in life observation / food consumption / food consumption"}, "[20]": {"conditions": "group: maternal, systemic / in life observation / body weight / body weight gain + systemic / in life observation / food consumption / food consumption + …"}, "[21]": {"conditions": "systemic / pathology microscopic / liver / hypertrophy + systemic / pathology microscopic / liver / infiltration cellular + systemic / …"}, "[22]": {"conditions": "systemic / pathology microscopic / kidney / [other] + systemic / pathology microscopic / kidney / dilatation + systemic / pathology …"}, "[23]": {"conditions": "systemic / pathology microscopic / kidney / proliferation"}, "[24]": {"conditions": "group: developmental, developmental / developmental malformation / bone / fused + developmental / developmental malformation / bone / misshapen + developmental / …"}, "[25]": {"conditions": "group: maternal, systemic / in life observation / food consumption / food consumption + reproductive / reproductive performance / postimplantation loss / …"}, "[26]": {"conditions": "systemic / pathology microscopic / kidney / dilatation + systemic / pathology microscopic / adrenal gland / fatty change + systemic / in …"}, "[27]": {"conditions": "group: maternal, systemic / in life observation / body weight / body weight gain + systemic / in life observation / body weight / body weight + systemic / in…"}, "[28]": {"conditions": "systemic / pathology microscopic / liver / proliferation + systemic / organ weight / liver / absolute + systemic / organ weight / liver / …"}, "[29]": {"conditions": "systemic / pathology microscopic / liver / hypertrophy"}, "[30]": {"conditions": "systemic / pathology microscopic / liver / hypertrophy + systemic / hematology / anemia / anemia - nos + systemic / hematology / erythrocyte…"}, "[31]": {"conditions": "systemic / pathology microscopic / kidney / hyalinization + systemic / pathology microscopic / kidney / lesion(s) (nos)"}, "[32]": {"conditions": "systemic / pathology microscopic / kidney / hyalinization + systemic / pathology microscopic / kidney / lesion(s) (nos) + systemic / …"}}}
{"smiles": "CN1COCN(Cc2cnc(Cl)s2)/C1=N/[N+](=O)[O-]", "note": "[Thiamethoxam]", "values": [{"measurement": "LOAEL", "setting": "rat [1]; [16]", "value": 750, "unit": "mg/kg/day"}, {"measurement": "NEL", "setting": "rat [1]; [16]", "value": 30, "unit": "mg/kg/day"}, {"measurement": "NOAEL", "setting": "rat [1]; [16]", "value": 200, "unit": "mg/kg/day"}, {"measurement": "LEL", "setting": "rat [1]; group: developmental, developmental / developmental malformation / bone / incomplete ossification + developmental / developmental malformation / bone / short …", "value": 200, "unit": "mg/kg/day"}, {"measurement": "LEL", "setting": "rat [1]; [17]", "value": 200, "unit": "mg/kg/day"}, {"measurement": "LOAEL", "setting": "rat [1]; [17]", "value": 200, "unit": "mg/kg/day"}, {"measurement": "NEL", "setting": "rat [1]; [17]", "value": 30, "unit": "mg/kg/day"}, {"measurement": "NOAEL", "setting": "rat [1]; [17]", "value": 30, "unit": "mg/kg/day"}, {"measurement": "LEL", "setting": "rabbit [2]; [18]", "value": 150, "unit": "mg/kg/day"}, {"measurement": "LOAEL", "setting": "rabbit [2]; [18]", "value": 150, "unit": "mg/kg/day"}, {"measurement": "NEL", "setting": "rabbit [2]; [18]", "value": 50, "unit": "mg/kg/day"}, {"measurement": "NOAEL", "setting": "rabbit [2]; [18]", "value": 50, "unit": "mg/kg/day"}, {"measurement": "LEL", "setting": "rabbit [2]; [19]", "value": 50, "unit": "mg/kg/day"}, {"measurement": "LOAEL", "setting": "rabbit [2]; [19]", "value": 50, "unit": "mg/kg/day"}, {"measurement": "NEL", "setting": "rabbit [2]; [20]", "value": 10, "unit": "mg/kg/day"}, {"measurement": "NOAEL", "setting": "rabbit [2]; [20]", "value": 10, "unit": "mg/kg/day"}, {"measurement": "LEL", "setting": "rat [3]", "value": 250, "unit": "mg/kg/day"}, {"measurement": "LOAEL", "setting": "rat [3]", "value": 250, "unit": "mg/kg/day"}, {"measurement": "NEL", "setting": "rat [3]", "value": 60, "unit": "mg/kg/day"}, {"measurement": "NOAEL", "setting": "rat [3]", "value": 60, "unit": "mg/kg/day"}, {"measurement": "LEL", "setting": "dog [4]", "value": 32, "unit": "mg/kg/day"}, {"measurement": "LOAEL", "setting": "dog [4]", "value": 32, "unit": "mg/kg/day"}, {"measurement": "NEL", "setting": "dog [4]", "value": 8.23, "unit": "mg/kg/day"}, {"measurement": "NOAEL", "setting": "dog [4]", "value": 8.23, "unit": "mg/kg/day"}, {"measurement": "NEL", "setting": "mouse [5]; systemic / organ weight / liver / relative to body weight + systemic / pathology microscopic / liver / hypertrophy + systemic / pathology …", "value": 479, "unit": "mg/kg/day"}, {"measurement": "LOAEL", "setting": "mouse [5]; [21]", "value": 63.8, "unit": "mg/kg/day"}, {"measurement": "NOAEL", "setting": "mouse [5]; [21]", "value": 2.63, "unit": "mg/kg/day"}, {"measurement": "LOAEL", "setting": "rat [6]; [22]", "value": 81.7, "unit": "mg/kg/day"}, {"measurement": "NOAEL", "setting": "rat [6]; [22]", "value": 8.04, "unit": "mg/kg/day"}, {"measurement": "LEL", "setting": "rat [6]; [23]", "value": 8.04, "unit": "mg/kg/day"}, {"measurement": "NEL", "setting": "rat [6]; [23]", "value": "< 8.04", "unit": "mg/kg/day"}, {"measurement": "LEL", "setting": "rabbit [7]; [24]", "value": 150, "unit": "mg/kg/day"}, {"measurement": "LOAEL", "setting": "rabbit [7]; [24]", "value": 150, "unit": "mg/kg/day"}, {"measurement": "NEL", "setting": "rabbit [7]; [24]", "value": 50, "unit": "mg/kg/day"}, {"measurement": "NOAEL", "setting": "rabbit [7]; [24]", "value": 50, "unit": "mg/kg/day"}, {"measurement": "LEL", "setting": "rabbit [7]; group: maternal, systemic / in life observation / food consumption / food consumption", "value": 50, "unit": "mg/kg/day"}, {"measurement": "LOAEL", "setting": "rabbit [7]; [25]", "value": 150, "unit": "mg/kg/day"}, {"measurement": "NEL", "setting": "rabbit [7]; [25]", "value": 15, "unit": "mg/kg/day"}, {"measurement": "NOAEL", "setting": "rabbit [7]; [25]", "value": 50, "unit": "mg/kg/day"}, {"measurement": "LOAEL", "setting": "rat [8]; systemic / pathology microscopic / kidney / dilatation + systemic / pathology microscopic / adrenal gland / fatty change", "value": 300, "unit": "mg/kg/day"}, {"measurement": "NEL", "setting": "rat [8]; [26]", "value": 100, "unit": "mg/kg/day"}, {"measurement": "NOAEL", "setting": "rat [8]; [26]", "value": 100, "unit": "mg/kg/day"}, {"measurement": "LEL", "setting": "rat [8]; systemic / pathology microscopic / kidney / dilatation + systemic / pathology microscopic / adrenal gland / fatty change + systemic / …", "value": 300, "unit": "mg/kg/day"}, {"measurement": "LEL", "setting": "rat [9]; [18]", "value": 1000, "unit": "mg/kg/day"}, {"measurement": "LOAEL", "setting": "rat [9]; [18]", "value": 1000, "unit": "mg/kg/day"}, {"measurement": "NEL", "setting": "rat [9]; [18]", "value": 500, "unit": "mg/kg/day"}, {"measurement": "NOAEL", "setting": "rat [9]; [18]", "value": 500, "unit": "mg/kg/day"}, {"measurement": "LOAEL", "setting": "rat [9]; group: maternal, systemic / in life observation / body weight / body weight gain", "value": 500, "unit": "mg/kg/day"}, {"measurement": "LEL", "setting": "rat [9]; [27]", "value": 500, "unit": "mg/kg/day"}, {"measurement": "NEL", "setting": "rat [9]; [27]", "value": 100, "unit": "mg/kg/day"}, {"measurement": "NOAEL", "setting": "rat [9]; [27]", "value": 100, "unit": "mg/kg/day"}, {"measurement": "LEL", "setting": "dog [10]", "value": 43, "unit": "mg/kg/day"}, {"measurement": "LOAEL", "setting": "dog [10]", "value": 43, "unit": "mg/kg/day"}, {"measurement": "NEL", "setting": "dog [10]", "value": 32.6, "unit": "mg/kg/day"}, {"measurement": "NOAEL", "setting": "dog [10]", "value": 32.6, "unit": "mg/kg/day"}, {"measurement": "LEL", "setting": "mouse [11]; systemic / pathology microscopic / liver / proliferation", "value": 72, "unit": "mg/kg/day"}, {"measurement": "LOAEL", "setting": "mouse [11]; [28]", "value": "> 386", "unit": "mg/kg/day"}, {"measurement": "NEL", "setting": "mouse [11]; [28]", "value": 16, "unit": "mg/kg/day"}, {"measurement": "NOAEL", "setting": "mouse [11]; [28]", "value": "≥ 386", "unit": "mg/kg/day"}, {"measurement": "LEL", "setting": "rat [12]", "value": 63, "unit": "mg/kg/day"}, {"measurement": "LOAEL", "setting": "rat [12]", "value": 63, "unit": "mg/kg/day"}, {"measurement": "NEL", "setting": "rat [12]", "value": 21, "unit": "mg/kg/day"}, {"measurement": "NOAEL", "setting": "rat [12]", "value": 21, "unit": "mg/kg/day"}, {"measurement": "LEL", "setting": "mouse [13]; [29]", "value": 14.3, "unit": "mg/kg/day"}, {"measurement": "LOAEL", "setting": "mouse [13]; [29]", "value": 14.3, "unit": "mg/kg/day"}, {"measurement": "NEL", "setting": "mouse [13]; [30]", "value": 1.41, "unit": "mg/kg/day"}, {"measurement": "NOAEL", "setting": "mouse [13]; [30]", "value": 1.41, "unit": "mg/kg/day"}, {"measurement": "LEL", "setting": "rat [14]; [31]", "value": 17.6, "unit": "mg/kg/day"}, {"measurement": "LOAEL", "setting": "rat [14]; [31]", "value": 17.6, "unit": "mg/kg/day"}, {"measurement": "NEL", "setting": "rat [14]; [32]", "value": 1.74, "unit": "mg/kg/day"}, {"measurement": "NOAEL", "setting": "rat [14]; [32]", "value": 1.74, "unit": "mg/kg/day"}, {"measurement": "LEL", "setting": "dog [15]", "value": 21, "unit": "mg/kg/day"}, {"measurement": "LOAEL", "setting": "dog [15]", "value": 21, "unit": "mg/kg/day"}, {"measurement": "NEL", "setting": "dog [15]", "value": 4.05, "unit": "mg/kg/day"}, {"measurement": "NOAEL", "setting": "dog [15]", "value": 4.05, "unit": "mg/kg/day"}]}
